Reference: patent US8008303B2, “Biphenyl derivatives and their use in treating hepatitis C” (AstraZeneca AB, priority 2005, dated 2011)
Like-named read-outs stand apart in the source and are kept apart here.

Assays:
[1] = tested on: HCV replicon cells Huh 9B; experiment: HCV replicon assay (luciferase readout); assay type: cell-based
In short: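 Compounds, made up at twice final strength (final DMSO 1%), were added to subgenomic replicon cells one day after plating. Incubation then ran 72 h at 37 °C, 5% CO2, without G418. Replication was quantified as firefly luciferase luminescence in lysed cells, with cytotoxicity assessed on a duplicate clear plate.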

[2] = tested on: HCV replicon cells Huh 9B; assay type: cell-based
[3] = Hepatitis C virus, 72 h, concentration reducing replicon level (luciferase activity) by 50% vs untreated cell control, 72 h incubation
[4] = concentration reducing total cell area by 50% relative to DMSO controls, methylene blue, absorbance 620 nm, 72 h incubation

## CCCS(=O)(=O)N1CCN(Cc2ccc(NC(=O)c3ccc(-c4cc(NC(=O)C5CC5)ccc4C)cc3)cc2)CC1 [Example 243, 5′-(Cyclopropanecarbonyl-amino)-2′-methyl-biphenyl-4-carboxylic acid [4-(4-propane-1-sulfonyl-piperazin-1-ylmethyl)-phenyl]-amide]
[1]; [3]
  IC50: < 1 µM
[2]; [4]
  TD50: * (* < 50 μM)

## COc1ccc(S(=O)(=O)Nc2ccc(N3CCOCC3)cc2)cc1-c1ccc(C(=O)Nc2ccc(CN3CCS(=O)(=O)CC3)cc2)cc1 [Example 244, 2′-Methoxy-5′-(4-morpholin-4-yl-phenylsulfamoyl)-biphenyl-4-carboxylic acid [4-(1,1-dioxo-1lambda*6*-thiomorpholin-4-ylmethyl)-phenyl]-amide]
[1]; [3]
  IC50: < 1 µM
[2]; [4]
  TD50: * (* < 50 μM)

## COc1ccc(S(=O)(=O)Nc2ccc(N3CCOCC3)cc2)cc1-c1ccc(C(=O)Nc2ccc(CN3CCN(S(C)(=O)=O)CC3)cc2)cc1 [Example 245, 2′-Methoxy-5′-(4-morpholin-4-yl-phenylsulfamoyl)-biphenyl-4-carboxylic acid [4-(4-methanesulfonyl-piperazin-1-ylmethyl)-phenyl]-amide]
[1]; [3]
  IC50: < 1 µM
[2]; [4]
  TD50: * (* < 50 μM)

## COc1ccc(S(=O)(=O)Nc2ccc(N3CCOCC3)cc2)cc1-c1ccc(C(=O)Nc2ccc(CN3CCN(S(=O)(=O)C(C)C)CC3)cc2)cc1 [Example 246, 2′-Methoxy-5′-(4-morpholin-4-yl-phenylsulfamoyl)-biphenyl-4-carboxylic acid [4-(4-propane-2-sulfonyl-piperazin-1-ylmethyl)-phenyl]-amide]
[1]; [3]
  IC50: < 1 µM
[2]; [4]
  TD50: * (* < 50 μM)

## COc1ccc(S(=O)(=O)Nc2ccc(N3CCOCC3)cc2)cc1-c1ccc(C(=O)Nc2ccc(CN3CCN(S(=O)(=O)N(C)C)CC3)cc2)cc1 [Example 247, 2′-Methoxy-5′-(4-morpholin-4-yl-phenylsulfamoyl)-biphenyl-4-carboxylic acid [4-(4-dimethylsulfamoyl-piperazin-1-ylmethyl)-phenyl]-amide]
[1]; [3]
  IC50: < 1 µM
[2]; [4]
  TD50: * (* < 50 μM)

## CCCS(=O)(=O)N1CCN(Cc2ccc(NC(=O)c3ccc(-c4cc(S(=O)(=O)Nc5ccc(N6CCOCC6)cc5)ccc4OC)cc3)cc2)CC1 [Example 248, 2′-Methoxy-5′-(4-morpholin-4-yl-phenylsulfamoyl)-biphenyl-4-carboxylic acid [4-(4-propane-1-sulfonyl-piperazin-1-ylmethyl)-phenyl]-amide]
[1]; [3]
  IC50: < 1 µM
[2]; [4]
  TD50: * (* < 50 μM)

## CN1CCN(Cc2ccc(NC(=O)c3ccc(-c4cc(NC(=O)C5CCCCC5)ccc4Cl)cc3)cc2)CC1 [Example 249, 2′-Chloro-5′-(cyclohexanecarbonyl-amino)-biphenyl-4-carboxylic acid [4-(4-methyl-piperazin-1-ylmethyl)-phenyl]-amide]
[1]; [3]
  IC50: 1 to 5 µM
[2]; [4]
  TD50: * (* < 50 μM)

## CS(=O)(=O)N1CCN(Cc2ccc(NC(=O)c3ccc(-c4cc(NC(=O)[C@H]5CCCN5)ccc4Cl)cc3)cc2)CC1 [Example 250, (R)-Pyrrolidine-2-carboxylic acid {6-chloro-4′-[4-(4-methanesulfonyl-piperazin-1-ylmethyl)-phenylcarbamoyl]-biphenyl-3-yl}-amide]
[1]; [3]
  IC50: < 1 µM
[2]; [4]
  TD50: * (* < 50 μM)

## CCCS(=O)(=O)N1CCN(Cc2ccc(NC(=O)c3ccc(-c4cc(NC(=O)[C@H]5CCCCN5)ccc4Cl)cc3)cc2)CC1 [Example 251, (R)-Piperidine-2-carboxylic acid {6-chloro-4′-[4-(4-(propane-1-sulfonyl)-piperazin-1-ylmethyl)-phenylcarbamoyl]-biphenyl-3-yl}-amide]
[1]; [3]
  IC50: < 1 µM
[2]; [4]
  TD50: * (* < 50 μM)

## CNCC(=O)Nc1ccc(Cl)c(-c2ccc(C(=O)Nc3ccc(CN4CCN(S(C)(=O)=O)CC4)cc3)cc2)c1 [Example 252, 2′-Chloro-5′-(2-methylamino-acetylamino)-biphenyl-4-carboxylic acid [4-(4-methanesulfonyl-piperazin-1-ylmethyl)-phenyl]-amide]
[1]; [3]
  IC50: < 1 µM
[2]; [4]
  TD50: * (* < 50 μM)

## CCCS(=O)(=O)N1CCN(Cc2ccc(NC(=O)c3ccc(-c4cc(NC(=O)NC5CCCCC5)ccc4Cl)cc3)cc2)CC1 [Example 253, 2′-Chloro-5′-(3-cyclohexyl-ureido)-biphenyl-4-carboxylic acid {4-[4-(propane-1-sulfonyl)-piperazin-1-ylmethyl]-phenyl}-amide]
[1]; [3]
  IC50: < 1 µM
[2]; [4]
  TD50: * (* < 50 μM)

## CC(C)S(=O)(=O)N1CCN(Cc2ccc(NC(=O)c3ccc(-c4cc(NC(=O)NC5CCCCC5)ccc4Cl)cc3)cc2)CC1 [Example 254, 2′-Chloro-5′-(3-cyclohexyl-ureido)-biphenyl-4-carboxylic acid {4-[4-(propane-2-sulfonyl)-piperazin-1-ylmethyl]-phenyl}-amide]
[1]; [3]
  IC50: < 1 µM
[2]; [4]
  TD50: * (* < 50 μM)

## CN(C)S(=O)(=O)N1CCN(Cc2ccc(NC(=O)c3ccc(-c4cc(NC(=O)NC5CCCCC5)ccc4Cl)cc3)cc2)CC1 [Example 255, 2′-Chloro-5′-(3-cyclohexyl-ureido)-biphenyl-4-carboxylic acid [4-(4-dimethylsulfamoyl-piperazin-1-ylmethyl]-phenyl}-amide]
[1]; [3]
  IC50: < 1 µM
[2]; [4]
  TD50: * (* < 50 μM)

## CS(=O)(=O)N1CCN(Cc2ccc(NC(=O)c3ccc(-c4cc(C(=O)Nc5ccc(N6CCOCC6)cc5)ccc4OC(F)(F)F)cc3)cc2)CC1 [Example 256, 6-Trifluoromethoxy-biphenyl-3,4′-dicarboxylic acid 4′-{[4-(4-methanesulfonyl-piperazin-1-ylmethyl)-phenyl]-amide} 3-[(4-morpholin-4-yl-phenyl)-amide]]
[1]
  IC50: < 1 µM
[2]
  TD50: * (key: * < 50 μM; ** > 50 μM)

## CCCS(=O)(=O)N1CCN(Cc2ccc(NC(=O)c3ccc(-c4cc(C(=O)Nc5ccc(N6CCOCC6)cc5)ccc4OC)cc3)cc2)CC1 [Example 257, 6-Methoxy-biphenyl-3,4′-dicarboxylic acid 3-[(4-morpholin-4-yl-phenyl)-amide] 4′-({4-[4-(propane-1-sulfonyl)-piperazin-1-ylmethyl]-phenyl}-amide)]
[1]
  IC50: < 1 µM
[2]; [4]
  TD50: * (* < 50 μM)

## COc1ccc(C(=O)Nc2ccc(N3CCOCC3)cc2)cc1-c1ccc(C(=O)Nc2ccc(CN3CCN(S(=O)(=O)C(C)C)CC3)cc2)cc1 [Example 258, 6-Methoxy-biphenyl-3,4′-dicarboxylic acid 3-[(4-morpholin-4-yl-phenyl)-amide] 4′-({4-[4-(propane-2-sulfonyl)-piperazin-1-ylmethyl]-phenyl}-amide)]
[1]
  IC50: < 1 µM
[2]; [4]
  TD50: * (* < 50 μM)

## COc1ccc(C(=O)Nc2ccc(N3CCOCC3)cc2)cc1-c1ccc(C(=O)Nc2ccc(CN3CCN(S(=O)(=O)N(C)C)CC3)cc2)cc1 [Example 259, 6-Methoxy-biphenyl-3,4′-dicarboxylic acid 4′-{[4-(4-dimethylsulfamoyl-piperazin-1-ylmethyl)-phenyl]-amide} 3-[(4-morpholin-4-yl-phenyl)-amide]]
[1]
  IC50: < 1 µM
[2]
  TD50: * (key: * < 50 μM; ** > 50 μM)

## CCCS(=O)(=O)N1CCN(Cc2ccc(NC(=O)c3ccc(-c4cc(C(=O)Nc5ccc(N6CCOCC6)cc5C)ccc4OC)cc3)cc2)CC1 [Example 260, 6-Methoxy-biphenyl-3,4′-dicarboxylic acid 3-[(2-methyl-4-morpholin-4-yl-phenyl)-amide] 4′-({4-[4-(propane-1-sulfonyl)-piperazin-1-ylmethyl]-phenyl}-amide)]
[1]
  IC50: < 1 µM
[2]; [4]
  TD50: * (* < 50 μM)

## COc1ccc(C(=O)Nc2ccc(N3CCS(=O)(=O)CC3)cc2)cc1-c1ccc(C(=O)Nc2ccc(N3CCN(C)CC3)cc2)cc1 [Example 261, 6-Methoxy-biphenyl-3,4′-dicarboxylic acid 3-{[4-(4-(1,1-dioxo-1lambda*6*-thiomorpholin-4-yl)-phenyl]-amide} 4′-{[4-(4-methyl-piperazin-1-yl)-phenyl]-amide}]
[1]
  IC50: 1 to 5 µM
[2]
  TD50: * (key: * < 50 μM; ** > 50 μM)

## CCCCS(=O)(=O)N1CCN(Cc2ccc(NC(=O)c3ccc(-c4cc(C(=O)Nc5ccc(N6CCOCC6)cc5)ccc4Cl)cc3)cc2)CC1 [Example 263, 6-Chloro-biphenyl-3,4′-dicarboxylic acid 4′-({4-[4-(butane-1-sulfonyl)piperazin-1-ylmethyl]-phenyl}-amide) 3-[(4-morpholin-4-yl-phenyl)-amide]]
[1]
  IC50: < 1 µM
[2]
  TD50: * (key: * < 50 μM; ** > 50 μM)

## CCCS(=O)(=O)N1CCN(Cc2ccc(NC(=O)c3ccc(-c4cc(C(=O)Nc5ccc(N6CCOCC6)c(F)c5)ccc4Cl)cc3)cc2)CC1 [Example 264, 6-Chloro-biphenyl-3,4′-dicarboxylic acid 3-[(3-fluoro-4-morpholin-4-yl-phenyl)-amide] 4′-({4-[4-(propane-1-sulfonyl)-piperazin-1-ylmethyl]-phenyl}-amide)]
[1]
  IC50: < 1 µM
[2]; [4]
  TD50: * (* < 50 μM)

## CS(=O)(=O)N1CCN(Cc2ccc(NC(=O)c3ccc(Cl)c(-c4ccc(C(=O)Nc5ccc(N6CCOCC6)cc5)cc4)c3)cc2)CC1 [Example 265, 6-Chloro-biphenyl-3,4′-dicarboxylic acid 3-{[4-(4-methanesulfonyl-piperazin-1-ylmethyl)-phenyl]-amide} 4′-[(4-morpholin-4-yl-phenyl)-amide]]
[1]
  IC50: < 1 µM
[2]
  TD50: * (key: * < 50 μM; ** > 50 μM)
